The record followed here is patent US10167279B2 (NOVARTIS AG, priority 2014, dated 2019).

Sequence of C-Raf FL (P04049 whole entry Y340E/Y341E): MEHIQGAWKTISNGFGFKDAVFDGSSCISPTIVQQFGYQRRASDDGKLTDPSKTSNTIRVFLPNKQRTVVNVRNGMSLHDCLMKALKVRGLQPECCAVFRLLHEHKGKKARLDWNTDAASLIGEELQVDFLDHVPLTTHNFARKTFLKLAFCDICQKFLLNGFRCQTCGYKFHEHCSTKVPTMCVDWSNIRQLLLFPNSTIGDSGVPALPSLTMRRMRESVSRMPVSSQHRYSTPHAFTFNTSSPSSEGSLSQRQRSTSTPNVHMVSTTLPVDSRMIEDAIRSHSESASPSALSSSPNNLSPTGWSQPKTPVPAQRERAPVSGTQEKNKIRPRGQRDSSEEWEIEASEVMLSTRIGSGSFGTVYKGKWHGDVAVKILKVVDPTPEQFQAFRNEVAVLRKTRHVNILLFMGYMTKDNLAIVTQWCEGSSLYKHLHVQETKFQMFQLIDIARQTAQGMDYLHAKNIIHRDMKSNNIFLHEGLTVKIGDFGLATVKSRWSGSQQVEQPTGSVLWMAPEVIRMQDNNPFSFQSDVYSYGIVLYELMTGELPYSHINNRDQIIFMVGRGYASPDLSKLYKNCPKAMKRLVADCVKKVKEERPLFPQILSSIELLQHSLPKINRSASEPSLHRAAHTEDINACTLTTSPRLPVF
Sequence of C-Raf FL (P63104 whole entry partner): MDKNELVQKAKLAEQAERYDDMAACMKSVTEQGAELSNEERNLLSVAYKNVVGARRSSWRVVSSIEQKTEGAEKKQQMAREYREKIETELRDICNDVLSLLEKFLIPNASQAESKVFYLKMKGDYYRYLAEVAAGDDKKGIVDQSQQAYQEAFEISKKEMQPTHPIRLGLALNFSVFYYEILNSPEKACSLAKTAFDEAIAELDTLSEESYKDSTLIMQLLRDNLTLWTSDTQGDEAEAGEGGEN

This assay addresses C-Raf FL (Homo sapiens (Human), UniProt P04049, Y340E/Y341E). Put plainly: In vitro Raf activity determination (Alpha Screen, phospho-MEK), C-Raf FL (full length, Y340E/Y341E). The class given is biochemical. The following applies: ATP 1 μM; 60 min pre-incubation; 1 hour reaction; column head does not say FL or TR. In a few lines:
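Sf9-expressed C-Raf incubated with biotinylated kinase-dead MEK1 (K97R) in 50 mM Tris pH 7.5, 15 mM MgCl2, 0.01% BSA, 1 mM DTT with compound, 60 min at room temperature. Phospho-MEK detected by anti-p-MEK AlphaScreen luminescence; IC50 by non-linear regression.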
Compound `CCOc1ncc(-c2cc(NC(=O)c3ccnc(C(C)(C)C#N)c3)cnc2C)cc1C1(CF)CCOC1` (centres unmarked) [Example 166, 2-(2-cyanopropan-2-yl)-N-(6′-ethoxy-5′-(3-(fluoromethyl)tetrahydrofuran-3-yl)-2-methyl-[3,3′-bipyridin]-5-yl)isonicotinamide] came in with an IC50 of 2 nM. The value for `CCOc1ncc(-c2cc(NC(=O)c3cccc(C(F)(F)F)c3)cnc2C)cc1C1(CF)CCOC1` (centres unmarked) [Example 167, N-(6′-ethoxy-5′-(3-(fluoromethyl)tetrahydrofuran-3-yl)-2-methyl-[3,3′-bipyridin]-5-yl)-3-(trifluoromethyl) benzamide] was 1 nM; that for `CCOc1ncc(-c2cc(NC(=O)c3ccnc(C(F)(F)F)c3)ccc2C)cc1C1(C#N)CCOC1` (centres unmarked) [Example 168, N-(3-(5-(3-cyanotetrahydrofuran-3-yl)-6-ethoxypyridin-3-yl)-4-methylphenyl)-2-(trifluoromethyl) isonicotinamide] was 0.3 nM; that for `CCOc1ncc(-c2cc(NC(=O)c3ccnc(C(C)(C)C#N)c3)ccc2C)cc1C1(C#N)CCOC1` (centres unmarked) [Example 169, 2-(2-cyanopropan-2-yl)-N-(3-(5-(3-cyanotetrahydrofuran-3-yl)-6-ethoxypyridin-3-yl)-4-methylphenyl) isonicotinamide] was 2 nM.

For the compound `CCOc1ncc(-c2cc(NC(=O)c3ccnc(C(C)(C)F)c3)cnc2C)cc1C1(C#N)CCOC1` (centres unmarked) [Example 170, N-(5′-(3-cyanotetrahydrofuran-3-yl)-6′-ethoxy-2-methyl-[3,3′-bipyridin]-5-yl)-2-(2-fluoropropan-2-yl) isonicotinamide], the midpoint of inhibition, the IC50, lay at 2 nM.

As to `CCOc1ncc(-c2cc(NC(=O)c3cccc(C(F)(F)F)c3)cnc2C)cc1C1(C#N)CCOC1` (centres unmarked) [Example 171, N-(5′-(3-cyanotetrahydrofuran-3-yl)-6′-ethoxy-2-methyl-[3,3′-bipyridin]-5-yl)-3-(trifluoromethyl) benzamide], the IC50 came to 1 nM. To `Cc1ccc(NC(=O)c2ccnc(C(F)(F)F)c2)cc1-c1cc(NCCO)nc(C2CCOCC2)c1` [Example 172, N-(3-(2-((2-hydroxyethyl)amino)-6-(tetrahydro-2H-pyran-4-yl)pyridin-4-yl)-4-methylphenyl)-2-(trifluoromethyl) isonicotinamide] belongs 1.99 nM.

Compound `Cc1ccc(NC(=O)c2cccc(C(F)(F)F)c2)cc1-c1cc(NCCO)nc(C2CCOCC2)c1` [Example 174] showed an IC50 of 0.331 nM. The value for `Cc1ccc(NC(=O)c2ccnc(C(C)(C)C#N)c2)cc1-c1cc(NCCO)nc(C2CCOCC2)c1` [Example 175, 2-(2-cyanopropan-2-yl)-N-(3-(2-((2-hydroxyethyl)amino)-6-(tetrahydro-2H-pyran-4-yl)pyridin-4-yl)-4-methylphenyl) isonicotinamide] was 0.83 nM. To `Cc1ccc(NC(=O)c2ccnc(C(F)(F)F)c2)cc1-c1cc(C2CCOCC2)nc(N(CCO)CCO)c1` [Example 176] belongs 0.684 nM. To `Cc1ccc(NC(=O)c2ccnc(C(C)(F)F)c2)cc1-c1cc(C2CCOCC2)nc(N(CCO)CCO)c1` [Example 177, N-(3-(2-(bis(2-hydroxyethyl)amino)-6-(tetrahydro-2H-pyran-4-yl)pyridin-4-yl)-4-methylphenyl)-2-(1,1-difluoroethyl) isonicotinamide] belongs 0.621 nM; to `Cc1ccc(NC(=O)c2cccc(C(F)(F)F)c2)cc1-c1cc(C2CCOCC2)nc(N(CCO)CCO)c1` [Example 178], 0.136 nM. The compound `Cc1ccc(NC(=O)c2ccnc(C(C)(C)C#N)c2)cc1-c1cc(C2CCOCC2)nc(N(CCO)CCO)c1` [Example 179, N-(3-(2-(bis(2-hydroxyethyl)amino)-6-(tetrahydro-2H-pyran-4-yl)pyridin-4-yl)-4-methylphenyl)-2-(2-cyanopropan-2-yl) isonicotinamide] gave an IC50 of 0.795 nM.

The compound `Cc1ncc(NC(=O)c2cccc(C(F)(F)F)c2)cc1-c1cc(NCCO)nc(C2CCOCC2)c1` [Example 180, N-(2′-((2-hydroxyethyl)amino)-2-methyl-6′-(tetrahydro-2H-pyran-4-yl)-[3,4′-bipyridin]-5-yl)-3-(trifluoromethyl) benzamide] had an IC50 of 0.297 nM. The compound `Cc1ncc(NC(=O)c2ccnc(C(F)(F)F)c2)cc1-c1cc(NCCO)nc(C2CCOCC2)c1` [Example 181, N-(2′-((2-hydroxyethyl)amino)-2-methyl-6′-(tetrahydro-2H-pyran-4-yl)-[3,4′-bipyridin]-5-yl)-2-(trifluoromethyl) isonicotinamide] registered an IC50 of 0.393 nM. The value for `CCC(F)(F)c1cc(C(=O)Nc2cnc(C)c(-c3cc(NCCO)nc(C4CCOCC4)c3)c2)ccn1` [Example 182, 2-(1,1-difluoropropyl)-N-(2′-((2-hydroxyethyl)amino)-2-methyl-6′-(tetrahydro-2H-pyran-4-yl)-[3,4′-bipyridin]-5-yl) isonicotinamide] was 0.951 nM; that for `Cc1ncc(NC(=O)c2cccc(C(F)(F)F)c2)cc1-c1cc(C2CCOCC2)nc(N2CCC(O)CC2)c1` [Example 183, N-(2′-(4-hydroxypiperidin-1-yl)-2-methyl-6′-(tetrahydro-2H-pyran-4-yl)-[3,4′-bipyridin]-5-yl)-3-(trifluoromethyl) benzamide] was 1.99 nM. On to `CCC(F)(F)c1cc(C(=O)Nc2cnc(C)c(-c3cc(C4CCOCC4)nc(N4CCC(O)CC4)c3)c2)ccn1` [Example 185, 2-(1,1-difluoropropyl)-N-(2′-(4-hydroxypiperidin-1-yl)-2-methyl-6′-(tetrahydro-2H-pyran-4-yl)-[3,4′-bipyridin]-5-yl) isonicotinamide], for which half-maximal inhibition (IC50) was put at 0.331 nM.

The compound `Cc1ccc(NC(=O)c2cccc(C(F)(F)F)c2)cc1-c1cc(C2CCOCC2)nc(N2CCC(O)CC2)c1` [Example 186, N-(3-(2-(4-hydroxypiperidin-1-yl)-6-(tetrahydro-2H-pyran-4-yl)pyridin-4-yl)-4-methylphenyl)-3-(trifluoromethyl) benzamide] gave an IC50 of 0.83 nM.

Compound `Cc1ccc(NC(=O)c2ccnc(C(F)(F)F)c2)cc1-c1cc(C2CCOCC2)nc(N2CCC(O)CC2)c1` [Example 187, N-(3-(2-(4-hydroxypiperidin-1-yl)-6-(tetrahydro-2H-pyran-4-yl)pyridin-4-yl)-4-methylphenyl)-2-(trifluoromethyl) isonicotinamide] gave an IC50 of 0.684 nM. The value for `CCC(F)(F)c1cc(C(=O)Nc2ccc(C)c(-c3cc(C4CCOCC4)nc(N4CCC(O)CC4)c3)c2)ccn1` [Example 188, 2-(1,1-difluoropropyl)-N-(3-(2-(4-hydroxypiperidin-1-yl)-6-(tetrahydro-2H-pyran-4-yl)pyridin-4-yl)-4-methylphenyl)-2-isonicotinamide] was 0.621 nM. In turn, `Cc1ccc(NC(=O)c2cccc(C(F)(F)F)c2)cc1-c1cc(OCCO)nc(C2CCOCC2)c1` [Example 189, N-(3-(2-(2-hydroxyethoxy)-6-(tetrahydro-2H-pyran-4-yl)pyridin-4-yl)-4-methylphenyl)-3-(trifluoromethyl) benzamide] displayed an IC50 of 0.136 nM. The value for `Cc1ccc(NC(=O)c2ccnc(C(F)(F)F)c2)cc1-c1cc(OCCO)nc(C2CCOCC2)c1` [Example 190, N-(3-(2-(2-hydroxyethoxy)-6-(tetrahydro-2H-pyran-4-yl)pyridin-4-yl)-4-methylphenyl)-2-(trifluoromethyl) isonicotinamide] was 0.795 nM.
